Reference: patent US10392338B2, “Spirofuranone compounds, derivatives thereof and processes for their preparation” (Yissum Research Development Company of The Hebrew …, priority 2015, dated 2019)
“Also recorded” adds a separate entry of the source.

Columns and labels:
[1] = target: rTRPV1(Y511G) (Rattus norvegicus, UniProt O35433, Y511G); conditions: 300 μM; VBS domain mutated
Description: Averaged (n=30 cells) ratiometric calcium responses of HEK293T cells expressing rat TRPV1 (rTRPV1), as a function of time. Application of different SAVA (as indicated; 300 μM; yellow bar) was followed by capsaicin (CAP; 5 μM; red bar). […] Same as B, but recorded from HEK293T cells expressing rTRPV1(Y511G) in which VBS domain is mutated. […] D. Superimposed capsaicin-(1 μM; grey line) and SAVA-(compound 6 in B; 300 μM; black line)-induced currents (Vholding=−40 mV) recorded in whole cell configuration from HEK293T cells expressing the rTRPV1. Recording were done on cells with similar TRPV1 expressing levels (determined by the initial response to pH 5.5). […] E. Current-clamp recording (I=0) in the whole cell configuration from small-diameter (C-fiber) rat TG neurons (P2 old pup).
To verify, that the evoked response of our TRPV1-positive compounds is through the Vanilloid-binding site (VBS), we analyzed their activation profile on TRPV1(Y511 G) construct.
Next, the new scaffolds-evoked TRPV1 currents were analyzed using the voltage-clamp whole-cell configuration of the patch-clamp technique on HEK293T cells stably transfected with the rTRPV1 gene.

[2] = system: small-diameter (C-fiber) rat TG neurons; test: Current-clamp whole-cell recording of membrane potential in dissociated TG sensory neurons; assay type: cell-based; conditions: capsaicin 0.2 μM; current clamp I=0; P2 rat TG neurons
Description: In dissociated sensory neurons from the trigeminal ganglion (TG) of P2 rat, the inventors have recorded the membrane potential following the application of the different molecules, using current-clamp mode in the whole-cell configuration. […] In contrast, the compound of the invention have evoked slow (in comparison to capsaicin), ˜20 mV depolarization, with no action potential firing (FIG. 16E, upper trace).

rTRPV1(Y511G), sequence (O35433 whole entry Y511G, the tested form may be a part): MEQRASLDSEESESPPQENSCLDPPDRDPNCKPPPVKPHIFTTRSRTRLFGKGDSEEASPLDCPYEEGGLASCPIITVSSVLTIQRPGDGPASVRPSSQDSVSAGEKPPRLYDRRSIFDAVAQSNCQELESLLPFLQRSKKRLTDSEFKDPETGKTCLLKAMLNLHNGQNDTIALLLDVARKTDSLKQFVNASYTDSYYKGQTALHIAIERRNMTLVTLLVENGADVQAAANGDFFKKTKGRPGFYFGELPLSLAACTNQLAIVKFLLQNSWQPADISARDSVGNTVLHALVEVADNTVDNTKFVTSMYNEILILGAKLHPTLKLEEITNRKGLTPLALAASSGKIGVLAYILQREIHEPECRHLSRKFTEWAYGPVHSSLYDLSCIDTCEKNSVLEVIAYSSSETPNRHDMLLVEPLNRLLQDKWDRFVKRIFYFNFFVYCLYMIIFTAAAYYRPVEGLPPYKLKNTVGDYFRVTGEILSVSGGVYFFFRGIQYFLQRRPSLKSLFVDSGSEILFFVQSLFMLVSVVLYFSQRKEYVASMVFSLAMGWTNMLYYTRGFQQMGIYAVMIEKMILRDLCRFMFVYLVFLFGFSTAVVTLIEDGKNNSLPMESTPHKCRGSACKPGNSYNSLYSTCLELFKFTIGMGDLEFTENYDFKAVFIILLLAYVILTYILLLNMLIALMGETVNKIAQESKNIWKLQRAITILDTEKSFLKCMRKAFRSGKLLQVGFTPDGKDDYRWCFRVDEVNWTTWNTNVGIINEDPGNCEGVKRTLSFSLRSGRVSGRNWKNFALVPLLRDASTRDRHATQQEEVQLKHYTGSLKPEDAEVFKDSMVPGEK

Row | SMILES | calcium response of cells expressing mutant rTRPV1(Y511G) [1] | depolarization and action potential firing [2]
1 | NCCOB(c1ccccc1)c1ccccc1 [2-APB, 2-aminoethoxydiphenyl borate] | responded | 
2 | COc1cc(CNC(=O)CCCC/C=C/C(C)C)ccc1O [capsaicin, Capsaicin] |  | pronounced depolarization and burst of action potentials, followed by depolarization block; also recorded: robust depolarization with burst of action potentials followed by depolarization block
